# Experimental data taken from patent EP0363255A1, “Analogues of 4-desoxydaunosamine, process for their preparation, anthracycline derivatives of these analogues and use of these anthracyclines as medicaments” (LABORATOIRES HOECHST S.A., priority 1988, dated 1990).
# Assays:
# [1] = tested on: cellules tumorales L 1210; test: Test de prolifération (réduction MTT), L1210; type: cell-based; settings: 72 h incubation
# Procedure: (§1) Des cellules tumorales L 1210, A 549 et HT 29 en croissance exponentielle, à une densité de 5.10³/ml dans un milieu RPMI, sont incubées dans des plaques de microtitration contenant 96 puits, pendant 72 heures (37°C, 5 % CO₂, 95 % d'humidité relative) avec diffé-rentes concentrations de chacun des glycosides conformes à l'invention.
# (§2) Les témoins consistent en cellules tumorales dans un milieu de culture frais.
# (§3) Quatre puits sont préparés pour chaque concentration de glycoside et pour le témoin.
# (§4) Après 65 heures, 50 µl de MTT (2,5 mg/ml dans du PBS) sont ajoutés.
# (§5) Le MTT sera réduit, en présence de cellules vivantes, en un colorant formazan rouge insoluble.
# (§6) Après 7 à 24 heures d'incubation supplémentaire, le surnageant est enlevé.
# (§7) Le colorant formazan est solubilisé par l'addition de 100 µl de DMSO dans chaque puits, suivie d'une agitation douce. L'extinction est mesurée pour chaque puits, à 492 nm (photomètre Multiscan 340 cc, Fa. Flow).
# (§8) Les résultats sont exprimés sous forme de relation de l'extinction après incubation avec les glycosides par rapport à l'extinction obtenue avec les té-moins. Le coefficient de variation est inférieur à 15 %. Les résultats sont représentés dans le tableau I, ci-après : […]
# cellules tumorales HT 29 = test: Test de prolifération (réduction MTT), HT 29; type: cell-based; settings: HT 29, MTT test, 72 h incubation
# Procedure: as §1, §2, §3, §4, §5, §6, §7, §8
# cellules tumorales A 549 = test: Test de prolifération (réduction MTT), A 549; type: cell-based; settings: A 549, MTT test, 72 h incubation
# Procedure: as §1, §2, §3, §4, §5, §6, §7, §8
# leucémie L1210 = settings: mouse, leucémie L1210, compared with daunorubicine 2a / doxorubicine 2b; cited from earlier work
# leucémie P 388 = settings: mouse, leucémie P 388, compared with daunorubicine 2a / doxorubicine 2b; cited from earlier work
# [2] = animal models, compared with 2a and 2b; cited from earlier work
# sarcome S 180 = settings: mouse, sarcome S 180, compared with daunorubicine 2a / doxorubicine 2b; cited from earlier work
SMILES,IC₅₀ [1],IC₅₀ (cellules tumorales HT 29),IC₅₀ (cellules tumorales A 549),activité in vivo (leucémie L1210),activité in vivo (leucémie P 388),cardiotoxicité [2],activité in vivo (sarcome S 180)
"COc1cccc2c1C(=O)c1c(O)c3c(c(O)c1C2=O)C[C@@](O)(C(C)=O)C[C@@H]3O[C@H]1C[C@H](CNC(=O)C(F)(F)F)C[C@H](C)O1 [15a, O-(N-TRIFLUOROACETYL AMINOMETHYL-3′ TETRADESOXY-2′, 3′, 4′,6′-α-L-LYXO-HEXOPYRANOSYL)-7 DAUNOMYCINONE]","0,25 µg/ml","0,67 µg/ml","0,43 µg/ml",–,–,–,–
"CC[C@@]1(O)C[C@H](O[C@H]2C[C@H](CNC(=O)C(F)(F)F)C[C@H](C)O2)c2c(O)c3c(c(O)c2[C@H]1O)C(=O)c1cccc(O)c1C3=O [16a, O-(N-TRIFLUOROACETYL AMINOMETHYL-3′ TETRADESOXY-2′,3′, 4′,6′-α-L-LYXO-HEXOPYRANOSYL)-7 β-RHODOMYCINONE]","0,14 µg/ml","0,48 µg/ml","0,14 µg/ml",–,–,–,–
COc1cccc2c1C(=O)c1c(O)c3c(c(O)c1C2=O)C[C@@](O)(C(C)=O)C[C@@H]3O[C@H]1C[C@H](N)C[C@H](C)O1 [compound 3],–,–,–,aussi actifs,aussi actifs,moins cardiotoxiques,aussi actifs
COc1cccc2c1C(=O)c1c(O)c3c(c(O)c1C2=O)C[C@@](O)(C(=O)CO)C[C@@H]3O[C@H]1C[C@H](N)C[C@H](C)O1 [compound 4],–,–,–,aussi actifs,aussi actifs,moins cardiotoxiques,aussi actifs
